Experimental data taken from patent publication US20250346593A1, “IMIDAZO(1,2-1)PYRIDINE DERIVATIVES AS RIPK2 INHIBITORS” (Interline Therapeutics, Inc., priority 2022, published 2025).
pIC50: −log10 of the molar value. Read-outs that look alike come from different tables or passages of the source.

Columns and labels:
[1] = system: NF-κB pathway (SEAP) in THP1-Dual cells; assay: THP-1 Dual cell SEAP assay (L18-MDP stimulated); format: cell-based; conditions: read-out: NFkB THP1 IC50
[2] = target: GST-RIPK2 fusion protein (human RIPK2 amino acids 1-310) (Homo sapiens (Human), UniProt O43353); assay: RIPK2 binding competition assay (TR-FRET, Tracer 199)
GST-RIPK2 fusion protein (human RIPK2 amino acids 1-310), sequence (O43353 1-310): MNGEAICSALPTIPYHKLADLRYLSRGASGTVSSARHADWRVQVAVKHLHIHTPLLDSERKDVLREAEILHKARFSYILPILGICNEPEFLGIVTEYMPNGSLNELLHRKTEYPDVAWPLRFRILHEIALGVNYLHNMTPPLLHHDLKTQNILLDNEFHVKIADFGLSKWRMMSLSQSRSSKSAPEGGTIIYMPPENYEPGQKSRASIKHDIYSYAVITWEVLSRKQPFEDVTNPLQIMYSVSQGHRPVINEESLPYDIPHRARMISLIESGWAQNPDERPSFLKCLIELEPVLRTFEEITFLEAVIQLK

[3] = read-out: RIPK2 IC50, RIPK2 binding competition assay

SMILES: COc1cc2ncc(-c3cc(C#N)c(OC)c(NS(C)(=O)=O)c3)n2cc1S(=O)(=O)C(C)(C)C [Example 260, N-(5-(6-(tert-butylsulfonyl)-7-methoxyimidazo[1,2-a]pyridin-3-yl)-3-cyano-2-methoxyphenyl)methane-sulfonamide]
- pIC50 ([1]; Homo sapiens, THP1-Dual): < 6.00
- pIC50 [2]: 7.70 to 8.60

SMILES: COc1cc2ncc(-c3cccc(NS(C)(=O)=O)c3)n2cc1S(=O)(=O)C(C)(C)C [Example 261, N-(3-(6-(tert-butylsulfonyl)-7-methoxyimidazo[1,2-a]pyridin-3-yl)phenyl)methanesulfon-amide]
- pIC50 ([1]; Homo sapiens, THP1-Dual): < 6.00
- pIC50 [2]: 7.70 to 8.60

SMILES: CCCS(=O)(=O)Nc1cc(-c2cnc3cc(OC)c(S(=O)(=O)C(C)(C)C)cn23)cc(F)c1C [Example 262, N-(5-(6-(tert-butylsulfonyl)-7-methoxyimidazo[1,2-a]pyridin-3-yl)-3-fluoro-2-methylphenyl)propane-1-sulfonamide]
- pIC50 ([1]; Homo sapiens, THP1-Dual): 6.00 to 6.60
- pIC50 [2]: 7.70 to 8.60

SMILES: CCCS(=O)(=O)Nc1c(F)c(-c2cnc3cc(OC)c(S(=O)(=O)C(C)(C)C)cn23)cc(F)c1OC [Example 263, N-(3-(6-(tert-butylsulfonyl)-7-methoxyimidazo[1,2-a]pyridin-3-yl)-2,5-difluoro-6-methoxyphenyl)propane-1-sulfonamide]
- pIC50 ([1]; Homo sapiens, THP1-Dual): 6.00 to 6.60
- pIC50 [2]: 7.70 to 8.60

SMILES: COc1cc(-c2cnc3cc(OC)c(S(=O)(=O)C(C)(C)C)cn23)cc(NS(C)(=O)=O)n1 [Example 264, N-(4-(6-(tert-butylsulfonyl)-7-methoxyimidazo[1,2-a]pyridin-3-yl)-6-methoxypyridin-2-yl)methanesulfonamide]
- pIC50 ([1]; Homo sapiens, THP1-Dual): 6.00 to 6.60
- pIC50 [2]: 7.70 to 8.60

SMILES: CCCS(=O)(=O)Nc1cc(-c2cnc3cc(OC)c(S(=O)(=O)C(C)(C)C)cn23)cnc1OC [Example 265, N-(5-(6-(tert-butylsulfonyl)-7-methoxyimidazo[1,2-a]pyridin-3-yl)-2-methoxypyridin-3-yl)propane-1-sulfonamide]
- pIC50 ([1]; Homo sapiens, THP1-Dual): 6.60 to 7.30
- pIC50 [2]: 7.70 to 8.60

SMILES: CCCS(=O)(=O)Nc1cc(-c2cnc3cc(OC)c(S(=O)(=O)C(C)(C)C)cn23)cc(F)c1F [Example 266, N-(5-(6-(tert-butylsulfonyl)-7-methoxyimidazo[1,2-a]pyridin-3-yl)-2,3-difluorophenyl)propane-1-sulfonamide]
- pIC50 ([1]; Homo sapiens, THP1-Dual): 6.00 to 6.60
- pIC50 [2]: 8.60 to 9.00

SMILES: CCCS(=O)(=O)Nc1cc(-c2cnc3cc(OC)c(S(=O)(=O)C(C)(C)C)cn23)cc(OC)c1F [Example 267, N-(5-(6-(tert-butylsulfonyl)-7-methoxyimidazo[1,2-a]pyridin-3-yl)-2-fluoro-3-methoxyphenyl)propane-1-sulfonamide]
- pIC50 ([1]; Homo sapiens, THP1-Dual): 6.00 to 6.60
- pIC50 [2]: 8.60 to 9.00

SMILES: CCCS(=O)(=O)Nc1cc(-c2cnc3cc(OC)c(S(=O)(=O)C(C)(C)C)cn23)cc(C)c1OC [Example 268, N-(5-(6-(tert-butylsulfonyl)-7-methoxyimidazo[1,2-a]pyridin-3-yl)-2-methoxy-3-methylphenyl)propane-1-sulfonamide]
- pIC50 ([1]; Homo sapiens, THP1-Dual): 6.60 to 7.30
- pIC50 [2]: 8.60 to 9.00

SMILES: CCCS(=O)(=O)Nc1cccc(-c2cnc3cc(OC)c(S(=O)(=O)C(C)(C)C)cn23)c1 [Example 269, N-(3-(6-(tert-butylsulfonyl)-7-methoxyimidazo[1,2-a]pyridin-3-yl)phenyl)propane-1-sulfonamide]
- pIC50 ([1]; Homo sapiens, THP1-Dual): 6.00 to 6.60
- pIC50 [2]: 8.60 to 9.00

SMILES: CCCS(=O)(=O)Nc1cc(-c2cnc3cc(OC)c(S(=O)(=O)C(C)(C)C)cn23)cc(F)c1OCC [Example 270, N-(5-(6-(tert-butylsulfonyl)-7-methoxyimidazo[1,2-a]pyridin-3-yl)-2-ethoxy-3-fluorophenyl)propane-1-sulfonamide]
- pIC50 ([1]; Homo sapiens, THP1-Dual): 6.00 to 6.60
- pIC50 [2]: 8.60 to 9.00

SMILES: CCCS(=O)(=O)Nc1cc(-c2cnc3cc(OC)c(S(=O)(=O)C(C)(C)C)cn23)ccc1OC(F)F [Example 271, N-(5-(6-(tert-butylsulfonyl)-7-methoxyimidazo[1,2-a]pyridin-3-yl)-2-(difluoromethoxy)phenyl) propane-1-sulfonamide]
- pIC50 ([1]; Homo sapiens, THP1-Dual): > 7.30
- pIC50 [2]: 8.60 to 9.00

SMILES: COc1cc2ncc(-c3cc(F)c(OC)c(NS(C)(=O)=O)c3)n2cc1S(=O)(=O)C(C)(C)C [Example 272, N-(5-(6-(tert-butylsulfonyl)-7-methoxyimidazo[1,2-a]pyridin-3-yl)-3-fluoro-2-methoxyphenyl)methane-sulfonamide]
- pIC50 ([1]; Homo sapiens, THP1-Dual): 6.60 to 7.30
- pIC50 [2]: 8.60 to 9.00

SMILES: CCCS(=O)(=O)Nc1cc(-c2cnc3cc(OC)c(S(=O)(=O)C4CC4)cn23)cc(OC)c1OC [Example 274, N-(5-(6-(cyclopropylsulfonyl)-7-methoxyimidazo[1,2-a]pyridin-3-yl)-2,3-dimethoxyphenyl)propane-1-sulfonamide]
- pIC50 ([1]; Homo sapiens, THP1-Dual): 6.60 to 7.30
- pIC50 [2]: > 9.00

SMILES: CCCS(=O)(=O)Nc1cc(-c2cnc3cc(OC)c(S(=O)(=O)C(C)(C)C)cn23)cc(F)c1OC [Example 275, N-(5-(6-(tert-butylsulfonyl)-7-methoxyimidazo[1,2-a]pyridin-3-yl)-3-fluoro-2-methoxyphenyl)propane-1-sulfonamide]
- pIC50 ([1]; Homo sapiens, THP1-Dual): > 7.30
- pIC50 [2]: > 9.00

SMILES: CCS(=O)(=O)Nc1cccc(-c2cnc3cc(OC)c(S(=O)(=O)C(C)(C)C)cn23)c1 [Example 276, N-(3-(6-(tert-butylsulfonyl)-7-methoxyimidazo[1,2-a]pyridin-3-yl)phenyl)ethanesulfon-amide]
- pIC50 [1]: 6.00 to 6.60
- pIC50 [2, 3]: 7.70 to 8.60

SMILES: COc1cc2ncc(-c3cccc(NS(=O)(=O)C(C)(C)C)c3)n2cc1S(=O)(=O)C(C)(C)C [Example 277, N-(3-(6-(tert-butylsulfonyl)-7-methoxyimidazo[1,2-a]pyridin-3-yl)phenyl)-2-methylpropane-2-sulfonamide]
- pIC50 ([1]; Homo sapiens, THP1-Dual): > 7.30
- pIC50 [2]: 7.70 to 8.60

SMILES: COc1cc2ncc(-c3cccc(NS(=O)(=O)C(C)C)c3)n2cc1S(=O)(=O)C(C)(C)C [Example 278, N-(3-(6-(tert-butylsulfonyl)-7-methoxyimidazo[1,2-a]pyridin-3-yl)phenyl)propane-2-sulfonamide]
- pIC50 ([1]; Homo sapiens, THP1-Dual): 6.00 to 6.60
- pIC50 [2]: 7.70 to 8.60

SMILES: COc1cc2ncc(-c3cc(F)c(OC)c(NS(=O)(=O)CC(C)C)c3)n2cc1S(=O)(=O)C(C)(C)C [Example 279, N-(5-(6-(tert-butylsulfonyl)-7-methoxyimidazo[1,2-a]pyridin-3-yl)-3-fluoro-2-methoxyphenyl)-2-methylpropane-1-sulfonamide]
- pIC50 ([1]; Homo sapiens, THP1-Dual): > 7.30
- pIC50 [2]: > 9.00

SMILES: COc1cc2ncc(-c3cccc(NS(=O)(=O)CC(C)C)c3)n2cc1S(=O)(=O)C(C)(C)C [Example 280, N-(3-(6-(tert-butylsulfonyl)-7-methoxyimidazo[1,2-a]pyridin-3-yl)phenyl)-2-methylpropane-1-sulfonamide]
- pIC50 ([1]; Homo sapiens, THP1-Dual): 6.00 to 6.60
- pIC50 [2]: 8.60 to 9.00

SMILES: CCCS(=O)(=O)Nc1cc(-c2cnn3ccc(S(=O)(=O)C(C)(C)C)cc23)ccc1OC [Example 281, N-(5-(5-(tert-butylsulfonyl)pyrazolo[1,5-a]pyridin-3-yl)-2-methoxyphenyl)propane-1-sulfonamide]
- pIC50 ([1]; Homo sapiens, THP1-Dual): 6.00 to 6.60
- pIC50 [2]: 7.70 to 8.60

SMILES: CCCS(=O)(=O)Nc1cc(C#N)cc(-c2cnc3cc(OC)c(S(=O)(=O)C(C)(C)C)cn23)c1 [Example 282, N-(3-(6-(tert-butylsulfonyl)-7-methoxyimidazo[1,2-a]pyridin-3-yl)-5-cyanophenyl)propane-1-sulfonamide]
- pIC50 ([1]; Homo sapiens, THP1-Dual): < 6.00
- pIC50 [2]: 7.70 to 8.60

SMILES: CCCS(=O)(=O)Nc1cc(OC)cc(-c2cnn3ccc(S(=O)(=O)C(C)(C)C)cc23)c1 [Example 283, N-(3-(5-(tert-butylsulfonyl)pyrazolo[1,5-a]pyridin-3-yl)-5-methoxyphenyl)propane-1-sulfonamide]
- pIC50 ([1]; Homo sapiens, THP1-Dual): 6.00 to 6.60
- pIC50 [2]: 7.70 to 8.60

SMILES: CCCS(=O)(=O)Nc1cc(-c2cnc3cc(OC)c(S(=O)(=O)C(C)(C)C)cn23)cc(F)c1OC(F)F [Example 284, N-(5-(6-(tert-butylsulfonyl)-7-methoxyimidazo[1,2-a]pyridin-3-yl)-2-(difluoromethoxy)-3-fluorophenyl)propane-1-sulfonamide]
- pIC50 ([1]; Homo sapiens, THP1-Dual): 6.60 to 7.30
- pIC50 [2]: 8.60 to 9.00

SMILES: COc1cc2ncc(-c3cc(NS(C)(=O)=O)c(OC)c(OC)c3)n2cc1S(=O)(=O)C(C)(C)C [Example 285, N-(5-(6-(tert-butylsulfonyl)-7-methoxyimidazo[1,2-a]pyridin-3-yl)-2,3-dimethoxyphenyl)methane sulfonamide]
- pIC50 ([1]; Homo sapiens, THP1-Dual): > 7.30
- pIC50 [2, 3]: > 9.00

SMILES: CCCS(=O)(=O)Nc1cc(-c2cnc3cc(OC)c(S(=O)(=O)C(C)(C)C)cn23)cnc1OC(F)F [Example 286, N-(5-(6-(tert-butylsulfonyl)-7-methoxyimidazo[1,2-a]pyridin-3-yl)-2-(difluoromethoxy)pyridin-3-yl)propane-1-sulfonamide]
- pIC50 ([1]; Homo sapiens, THP1-Dual): < 6.00
- pIC50 [2]: 7.70 to 8.60

SMILES: CCCS(=O)(=O)Nc1ccc(F)c(-c2cnc3cc(OC)c(S(=O)(=O)C(C)(C)C)cn23)c1 [Example 287, N-(3-(6-(tert-butylsulfonyl)-7-methoxyimidazo[1,2-a]pyridin-3-yl)-4-fluorophenyl)propane-1-sulfonamide]
- pIC50 ([1]; Homo sapiens, THP1-Dual): < 6.00
- pIC50 [2, 3]: < 7.70

SMILES: CCCS(=O)(=O)Nc1cc(-c2cnc3cc(OC)c(S(=O)(=O)C4CC4)cn23)ccc1OC [Example 288, N-(5-(6-(cyclopropylsulfonyl)-7-methoxyimidazo[1,2-a]pyridin-3-yl)-2-methoxyphenyl)propane-1-sulfonamide]
- pIC50 ([1]; Homo sapiens, THP1-Dual): < 6.00
- pIC50 [2]: 7.70 to 8.60

SMILES: CCCS(=O)(=O)Nc1cc(COC)cc(-c2cnc3cc(OC)c(S(=O)(=O)C(C)(C)C)cn23)c1 [Example 289, N-(3-(6-(tert-butylsulfonyl)-7-methoxyimidazo[1,2-a]pyridin-3-yl)-5-(methoxymethyl)phenyl) propane-1-sulfonamide]
- pIC50 ([1]; Homo sapiens, THP1-Dual): 6.00 to 6.60
- pIC50 [2]: 7.70 to 8.60

SMILES: CCCS(=O)(=O)Nc1cc(-c2cnc3cc(OC)c(S(=O)(=O)C(C)(C)C)cn23)cc(C)c1F [Example 290, N-(5-(6-(tert-butylsulfonyl)-7-methoxyimidazo[1,2-a]pyridin-3-yl)-2-fluoro-3-methylphenyl)propane-1-sulfonamide]
- pIC50 ([1]; Homo sapiens, THP1-Dual): < 6.00
- pIC50 [2]: 7.70 to 8.60
